These results are taken from patent US11986471B2, “Compounds and methods of use” (Tango Therapeutics, Inc., priority 2018, dated 2024).

The target in assay [1] is T1, PRMT5 (Homo sapiens, UniProt O14744).
T1 construct: purchased Viva (custom protein)
The experiment in a line: PRMT5 IC50 assay in the presence of MTA as cofactor. Type of assay: biochemical. The following applies: for IC50: PRMT5, MTA as cofactor. The essentials: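 Potency against PRMT5 is compared across cofactor states, where IC50 equals Ki×1.5 with SAM present and Ki×13.5 with MTA present.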

Assay [2] deals with T1, PRMT5. Description: PRMT5 IC50 assay in the presence of SAM as cofactor. Type of assay: biochemical. Put shortly:
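Each compound is tested on PRMT5 in the presence of SAM, of MTA, and without any cofactor. Ki values are then back-calculated using fixed factors of 1.5 (SAM) and 13.5 (MTA), and the two Ki values are compared as a ratio.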

A further assay concerns HAP1 MTAP-intact. Description: SDMA in-cell western assay, HAP1 MTAP-intact cell line. Type of assay: cell-based. The following applies: Homo sapiens. Put shortly:
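Potency reflects cellular SDMA reduction, detected by in-cell western, in HAP1 cells with or without MTAP (endogenous expression versus null).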

For assay [3], the target named is T1, PRMT5. Description: PRMT5 IC50 assay with no cofactor. The assay is classed as biochemical. Put shortly: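 Values reflect IC50 (μM) on human PRMT5 under three cofactor states. Selectivity is derived as the quotient of SAM-state Ki over MTA-state Ki, with each Ki obtained from its IC50.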
For the next assay, the system named is HAP1 MTAP-deleted. Description: SDMA in-cell western assay, HAP1 MTAP-deleted cell line. The assay is classed as cell-based. The following applies: for IC50: Homo sapiens, HAP1 MTAP-deleted cell line; for MTAP Intact/Deleted Ratio: IC50 ratio HAP1 MTAP-intact / HAP1 MTAP-deleted. Put shortly: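 These are IC50 values from an in-cell western measuring SDMA. The HAP1 cells used carry no MTAP, in contrast to the isogenic partner line with endogenous MTAP expression.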

The mark [4] stands for this setting: ratio between Ki in the presence of SAM and Ki in the presence of MTA.
The mark [5] stands for this setting: ratio between the Ki in the presence of SAM and the Ki in the presence of MTA.

Some results are limits rather than exact numbers.

T1 sequence (O14744 whole entry): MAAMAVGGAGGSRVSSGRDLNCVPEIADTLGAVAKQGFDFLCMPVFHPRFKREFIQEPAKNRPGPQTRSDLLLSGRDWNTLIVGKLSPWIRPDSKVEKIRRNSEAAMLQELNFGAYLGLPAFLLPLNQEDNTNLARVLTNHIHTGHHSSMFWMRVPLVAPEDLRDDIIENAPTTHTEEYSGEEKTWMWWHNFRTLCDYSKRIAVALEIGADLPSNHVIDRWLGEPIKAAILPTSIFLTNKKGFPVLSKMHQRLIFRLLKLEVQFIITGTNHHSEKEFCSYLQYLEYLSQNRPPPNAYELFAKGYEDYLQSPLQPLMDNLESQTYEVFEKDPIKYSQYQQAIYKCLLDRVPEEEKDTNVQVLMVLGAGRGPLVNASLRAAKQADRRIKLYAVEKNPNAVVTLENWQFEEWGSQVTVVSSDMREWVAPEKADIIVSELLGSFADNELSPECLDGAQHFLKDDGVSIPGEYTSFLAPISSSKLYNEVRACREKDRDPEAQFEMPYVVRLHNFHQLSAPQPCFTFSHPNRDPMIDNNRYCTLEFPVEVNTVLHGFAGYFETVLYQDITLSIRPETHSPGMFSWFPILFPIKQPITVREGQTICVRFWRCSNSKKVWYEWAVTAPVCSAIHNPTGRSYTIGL
T1 sequence (Q9BQA1 whole entry partner): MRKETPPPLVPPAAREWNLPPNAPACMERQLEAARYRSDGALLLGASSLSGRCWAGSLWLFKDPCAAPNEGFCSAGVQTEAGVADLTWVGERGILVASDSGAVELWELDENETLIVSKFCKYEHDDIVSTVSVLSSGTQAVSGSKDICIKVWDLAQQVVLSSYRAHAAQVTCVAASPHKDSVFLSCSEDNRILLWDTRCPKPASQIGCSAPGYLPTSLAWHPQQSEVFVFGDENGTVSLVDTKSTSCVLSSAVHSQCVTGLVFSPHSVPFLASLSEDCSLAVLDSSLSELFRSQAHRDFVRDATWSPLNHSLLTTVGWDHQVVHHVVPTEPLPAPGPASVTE

In the case of `O=C(NC[C@H](O)CN1CCc2c(ccc(OCc3cnco3)c2Cl)C1)c1cc(NC2COC2)nc(N2CCCCC2)n1` [Compound 327, (S)—N-(3-(5-chloro-6-(oxazol-5-ylmethoxy)-3N-dihydroisoquinolin-2(1H)-yl)-2-hydroxypropyl)-6-(oxetan-3-ylamino)-2-(piperidin-1-yl)pyrimidine-4-carboxamide], the IC50 on PRMT5 [1] is 50 to 500 nM; at PRMT5 [2] it was 50 to 500 nM; with HAP1 MTAP-intact it was ≥ 10000 nM; at PRMT5 [3] (read-out: No Co-factor IC50), 500 to 5000 nM; in the assay on HAP1 MTAP-deleted, 1000 to 10000 nM. Besides, the “SAM/MTA Ratio” value on PRMT5 [1] (setting [4]) was “A (a Ki ratio greater than or equal to 10 fold between the Ki in the presence of SAM and the Ki in the presence of MTA)”. The “MTAP Intact/Deleted Ratio” value in the assay on HAP1 MTAP-deleted was “B* (an IC50 ratio greater than or equal to 3 fold but lower than 10 fold between the IC50 in the HAP1 MTAP-intact cell line and the HAP1 MTAP-deleted cell line)”.

For the compound `O=C(NC[C@H](O)CN1CCc2c(ccc(OCc3cnco3)c2Cl)C1)c1ccc(OC2CCN(Cc3ccccc3)CC2)cc1` [Compound 330, (S)-4-((1-benzylpiperidin-4-yl)oxy)-N-(3-(5-chloro-6-(oxazol-5-ylmethoxy)-3,4-dihydroisoquinolin-2(1H)-yl)-2-hydroxypropyl)benzamide], the concentration for half-maximal inhibition (IC50) at PRMT5 [1] was 50 to 500 nM; at PRMT5 [2], 50 to 500 nM; with HAP1 MTAP-intact, ≥ 10000 nM; on PRMT5 [3] (read-out: No Co-factor IC50), 500 to 5000 nM; with HAP1 MTAP-deleted, ≥ 10000 nM. The “SAM/MTA Ratio” value at PRMT5 [1] (setting [4]) was “A (a Ki ratio greater than or equal to 10 fold between the Ki in the presence of SAM and the Ki in the presence of MTA)”. For the same compound, the “MTAP Intact/Deleted Ratio” value with HAP1 MTAP-deleted is “C* (an IC50 ratio of less than 3 fold between the IC50 in the HAP1 MTAP-intact cell line and the HAP1 MTAP-deleted cell line)”.

As for `CC(C)C(=O)N1CCC(Nc2cc(C(=O)NC[C@H](O)CN3CCc4cc(OCc5cnco5)ccc4C3)ccn2)CC1` [Compound 458, N-[(2S)-2-hydroxy-3-[6-(oxazol-5-ylmethoxy)-3,4-dihydro-1H-isoquinolin-2-yl]propyl]-2-[[1-(2-methylpropanoyl)-4-piperidyl]amino]pyridine-4-carboxamide], the IC50 on PRMT5 [1] is 50 to 500 nM; at PRMT5 [2] it was 50 to 500 nM; in the assay with HAP1 MTAP-intact, 1000 to 10000 nM; against PRMT5 [3] it was 500 to 5000 nM; in the assay on HAP1 MTAP-deleted it was < 1000 nM. The “SAM/MTA Ratio” value at PRMT5 [1] (setting [5]) was “A (a Ki ratio greater than or equal to 10 fold between the Ki in the presence of SAM and the Ki in the presence of MTA)”. The “MTAP Intact/Deleted Ratio” value in the assay on HAP1 MTAP-deleted is “C* (an IC50 ratio of less than 3 fold between the IC50 in the HAP1 MTAP-intact cell line and the HAP1 MTAP-deleted cell line)”.

Consider `CCN1CCN(c2cc(C(=O)NC[C@H](O)CN3CCc4cc(OCc5cnco5)ccc4C3)cc(NC3CCC3)n2)CC1` [Compound 286], for which the IC50 on PRMT5 [1] was in the range of 50 to 500 nM; at PRMT5 [2] it was 50 to 500 nM; with HAP1 MTAP-intact, 1000 to 10000 nM; on PRMT5 [3] (read-out: No Co-factor IC50), 500 to 5000 nM; with HAP1 MTAP-deleted, 1000 to 10000 nM. Further, at PRMT5 [1] (setting [4]), the “SAM/MTA Ratio” value is “A (a Ki ratio greater than or equal to 10 fold between the Ki in the presence of SAM and the Ki in the presence of MTA)”. The “MTAP Intact/Deleted Ratio” value with HAP1 MTAP-deleted is “B* (an IC50 ratio greater than or equal to 3 fold but lower than 10 fold between the IC50 in the HAP1 MTAP-intact cell line and the HAP1 MTAP-deleted cell line)”.

For `Cc1c(OCc2ccnn2C)ccc2c1CCN(C[C@@H](O)CNC(=O)c1ccnc(NC3CCCC3)c1)C2` [Compound 277, (S)-2-(cyclopentylamino)-N-(2-hydroxy-3-(5-methyl-6-((1-methyl-1H-pyrazol-5-yl)methoxy)-3N-dihydroisoquinolin-2(1H)-yl)propyl)isonicotinamide], the half-inhibitory concentration (IC50) at PRMT5 [1] is 500 to 5000 nM; on PRMT5 [2], 500 to 5000 nM; in the assay with HAP1 MTAP-intact it was ≥ 10000 nM; at PRMT5 [3] (read-out: No Co-factor IC50), ≥ 5000 nM; in the assay on HAP1 MTAP-deleted, ≥ 10000 nM. Moreover, on PRMT5 [1] (setting [4]), the “SAM/MTA Ratio” value is “A (a Ki ratio greater than or equal to 10 fold between the Ki in the presence of SAM and the Ki in the presence of MTA)”. For the same compound, the “MTAP Intact/Deleted Ratio” value in the assay on HAP1 MTAP-deleted is “C* (an IC50 ratio of less than 3 fold between the IC50 in the HAP1 MTAP-intact cell line and the HAP1 MTAP-deleted cell line)”.

Turning to `Cc1c(OCc2cnco2)ccc2c1CCN(C[C@@H](O)CNC(=O)c1ccnc(NC3CN(C(=O)C4CCC4)C3)c1)C2` [Compound 586, (S)-2-((1-(cyclobutanecarbonyl)azetidin-3-yl)amino)-N-(2-hydroxy-3-(5-methyl-6-(oxazol-5-ylmethoxy)-3N-dihydroisoquinolin-2(1H)-yl)propyl)isonicotinamide], the IC50 on PRMT5 [1] is 50 to 500 nM; at PRMT5 [2], 50 to 500 nM; in the assay with HAP1 MTAP-intact it was ≥ 10000 nM; at PRMT5 [3], 500 to 5000 nM; in the assay with HAP1 MTAP-deleted, 1000 to 10000 nM. The “SAM/MTA Ratio” value on PRMT5 [1] (setting [5]) is “A (a Ki ratio greater than or equal to 10 fold between the Ki in the presence of SAM and the Ki in the presence of MTA)”. For the same compound, in the assay on HAP1 MTAP-deleted, the “MTAP Intact/Deleted Ratio” value is “B* (an IC50 ratio greater than or equal to 3 fold but lower than 10 fold between the IC50 in the HAP1 MTAP-intact cell line and the HAP1 MTAP-deleted cell line)”.

As to `O=C(NC[C@H](O)CN1CCc2cc(OCc3cnco3)ccc2C1)c1ccnc(NC2CN(C(=O)C3CCC3)C2)c1` [Compound 468, 2-[[1-(cyclobutanecarbonyl)azetidin-3-yl]amino]-N-[(2S)-2-hydroxy-3-[6-(oxazol-5-ylmethoxy)-3,4-dihydro-1H-isoquinolin-2-yl]propyl]pyridine-4-carboxamide], the half-inhibitory concentration (IC50) on PRMT5 [1] was in the range of 50 to 500 nM; on PRMT5 [2], 50 to 500 nM; with HAP1 MTAP-intact, 1000 to 10000 nM; at PRMT5 [3] it was 500 to 5000 nM; in the assay on HAP1 MTAP-deleted it was 1000 to 10000 nM. In addition, the “SAM/MTA Ratio” value at PRMT5 [1] (setting [5]) was “A (a Ki ratio greater than or equal to 10 fold between the Ki in the presence of SAM and the Ki in the presence of MTA)”. Besides, in the assay on HAP1 MTAP-deleted, the “MTAP Intact/Deleted Ratio” value is “B* (an IC50 ratio greater than or equal to 3 fold but lower than 10 fold between the IC50 in the HAP1 MTAP-intact cell line and the HAP1 MTAP-deleted cell line)”.

Turning to `CC(=O)N1CC(Nc2cc(C(=O)NC[C@H](O)CN3CCc4c(ccc(OCc5ocnc5C)c4C)C3)nc(N3CCOCC3)n2)C1` [Compound 574, 6-[(1-acetylazetidin-3-yl)amino]-N-[(2S)-2-hydroxy-3-{5-methyl-6-[(4-methyl-1,3-oxazol-5-yl)methoxy]-1,2,3,4-tetrahydroisoquinolin-2-yl}propyl]-2-(morpholin-4-yl)pyrimidine-4-carboxamide], the IC50 on PRMT5 [1] was 50 to 500 nM; at PRMT5 [2], 50 to 500 nM; with HAP1 MTAP-intact, ≥ 10000 nM; on PRMT5 [3], ≥ 5000 nM; with HAP1 MTAP-deleted it was 1000 to 10000 nM. In addition, the “SAM/MTA Ratio” value on PRMT5 [1] (setting [5]) was “A (a Ki ratio greater than or equal to 10 fold between the Ki in the presence of SAM and the Ki in the presence of MTA)”. Further, the “MTAP Intact/Deleted Ratio” value with HAP1 MTAP-deleted is “C* (an IC50 ratio of less than 3 fold between the IC50 in the HAP1 MTAP-intact cell line and the HAP1 MTAP-deleted cell line)”.

As a reminder, the IC50 is the concentration at which inhibition is half-maximal.
